Like-named read-outs stand apart in the source and are kept apart here.
Experiments:
[1] = target: T1, RORγ ligand binding domain (LBD) (Homo sapiens, UniProt P51449); test: TR-FRET Activity Assay (ligand sensing, RORγ-LBD / coactivator peptide interaction, LANCE); assay type: biochemical
T1 construct: made in house; host or cells: E. coli BL-21 (BL3), vector pDEST15
T1 sequence (P51449 269-508 limits assumed): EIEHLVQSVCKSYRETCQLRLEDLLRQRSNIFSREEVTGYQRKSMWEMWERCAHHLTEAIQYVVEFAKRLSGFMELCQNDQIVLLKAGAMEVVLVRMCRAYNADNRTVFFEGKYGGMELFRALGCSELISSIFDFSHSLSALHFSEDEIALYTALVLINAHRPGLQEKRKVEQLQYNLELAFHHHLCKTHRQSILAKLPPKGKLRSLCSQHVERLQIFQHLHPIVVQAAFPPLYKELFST

RORγ = target: T2, RORγ (UniProt P51449); test: RORγ Gal4 Reporter Gene Assay in 293T cells (firefly and renilla luciferase); assay type: cell-based, human
T2 sequence (P51449 1-518): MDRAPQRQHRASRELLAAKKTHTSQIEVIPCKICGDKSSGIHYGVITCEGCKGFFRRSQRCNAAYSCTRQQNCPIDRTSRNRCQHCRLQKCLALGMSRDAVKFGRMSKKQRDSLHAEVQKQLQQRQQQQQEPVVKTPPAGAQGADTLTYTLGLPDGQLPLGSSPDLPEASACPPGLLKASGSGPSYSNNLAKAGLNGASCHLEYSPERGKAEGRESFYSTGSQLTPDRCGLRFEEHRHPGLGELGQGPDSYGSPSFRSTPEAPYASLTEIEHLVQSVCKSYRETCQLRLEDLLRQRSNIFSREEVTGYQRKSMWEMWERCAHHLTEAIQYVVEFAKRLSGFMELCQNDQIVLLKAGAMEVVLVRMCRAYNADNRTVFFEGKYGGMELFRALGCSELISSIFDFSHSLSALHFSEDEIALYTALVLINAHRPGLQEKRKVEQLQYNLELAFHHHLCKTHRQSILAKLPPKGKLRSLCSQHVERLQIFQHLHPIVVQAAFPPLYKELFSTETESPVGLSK

[2] = first value of the cell FRET/FF/REN, TR-FRET activity assay, read-out: pIC50 (FRET) (converted)
[3] = second value of the cell, Gal4 reporter gene assay in 293T cells, firefly luciferase
[4] = third value of the cell, Gal4 reporter gene assay in 293T cells, renilla normalised luciferase

| SMILES | IC50 [1, 2] | pIC50 (FF) (RORγ; [3]) | pIC50 (REN) (RORγ; [4]) | IC50 [1] | pIC50 (FF) (RORγ) | pIC50 (REN) (RORγ) |
| --- | --- | --- | --- | --- | --- | --- |
| Cc1c(C(=O)N[C@H]2C[C@H](C(=O)O)C2)c(Cl)c(-c2cc(C(C)(C)C)cc(C3(C)CC3)c2)n1CC1CCCCC1 [Example 29, (trans)-3-(5-(3-(tert-Butyl)-5-(1-methylcyclopropyl)phenyl)-4-chloro-1-(cyclohexylmethyl)-2-methyl-1H-pyrrole-3-carboxamido)cyclobutanecarboxylic acid] | 3.98 µM | 7.2 | 7.2 |  |  |  |
| Cc1c(C(=O)N[C@H]2C[C@H](C(=O)O)C2)cc(-c2ccc(S(=O)(=O)NC(C)(C)C)c(C(C)(C)O)c2)n1CC1CCCCC1 [17/328] | 0.501 µM | 6.6 | 6.6 |  |  |  |
| Cc1c(C(=O)NCC(C)(C)O)cc(-c2cc(C(C)(C)C)cc(S(=O)(=O)N(C)C(C)(C)C)c2)n1CC1CCCCC1 [9/3] | 0.316 µM | 7.1 | 7.1 |  |  |  |
| Cc1c(C(=O)NCCS(C)(=O)=O)cc(-c2cc(C(C)(C)C)cc(C(C)(C)C)c2)n1CC1CCCCC1 [1/1] | 0.251 µM | 6.6 | 6.7 |  |  |  |
| Cc1c(C(=O)N[C@H]2C[C@H](C(=O)O)C2)cc(-c2cc(Cl)cc(C(=O)NC(C)(C)C)c2)n1CC1CCCCC1 [17/298] | 2.51 µM | 5.9 | 6.0 |  |  |  |
| Cc1c(C(=O)NC2(C)CCOCC2)cc(-c2ccc(S(=O)(=O)NC(C)(C)C)c(C(C)(C)C)c2)n1CC1CCCCC1 [17/206] |  |  |  | 0.631 µM | 6.2/7.0/7.2 | 6.2/7.0/7.2 |
| Cc1c(C(=O)NCC(C)(C)O)cc(-c2cc(C(C)(C)C)c3c(c2)C2(CCO3)CC2)n1CC1CCCCC1 [1/39] |  |  |  | 0.316 µM | 6.5/6.9/7.0 | 6.5/6.9/7.0 |
| Cc1cc(S(=O)(=O)NC(C)(C)C)c(C(F)(F)F)cc1-c1cc(C(=O)NC2CCOCC2)c(C)n1CC1CCCCC1 [17/233] |  |  |  | 1.58 µM | 5.8/6.5/6.5 | 5.8/6.5/6.5 |
| Cc1c(C(=O)NC2CCOCC2)cc(-c2cc(Cl)c(S(N)(=O)=O)c(C(F)(F)F)c2)n1CC1CCCCC1 [19/1] | 0.501 µM | 6.8 | 6.8 |  |  |  |
| Cc1c(C(=O)NC2CCOCC2)cc(-c2cc(Cl)cc(C3(C)CC3)c2)n1CC1CCCCC1 [17/296] | 0.251 µM | 7.0 | 7.1 |  |  |  |
| CC(C)(C)c1cc(-c2cc(C(=O)N[C@H]3C[C@H](C(=O)O)C3)c(F)n2CC2CCCCC2)cc(C2(C)CC2)c1 [20/3] | 0.631 µM | 7.3 | 7.4 |  |  |  |
| Cc1c(C(=O)NC2COC2)cc(-c2cc(C(F)(F)F)c3c(c2)C2(CCO3)CC2)n1CC1CCCCC1 [1/132] | 0.631 µM | 6.8 | 6.8 |  |  |  |
| Cc1c(C(=O)N[C@H]2C[C@H](C(=O)O)C2)cc(-c2cc(C(=O)NC(C)(C)C)cc(C(C)(C)C)c2)n1CC1CCCCC1 [17/330] | 2.51 µM | 7.3 | 7.4 |  |  |  |
| CCN(C(C)(C)C)S(=O)(=O)c1ccc(-c2cc(C(=O)NC3CCOCC3)c(C)n2CC2CCCCC2)cc1C(F)(F)F [17/85] |  |  |  | > 20 µM | <4.7/7.4/7.5 | <4.7/7.4/7.5 |
| Cc1c(C(=O)N2CC3(C2)NC(=O)CNC3=O)cc(-c2ccc(S(=O)(=O)NC(C)(C)C)c(C(F)(F)F)c2)n1CC1CCCCC1 [17/294] | 3.16 µM | < 4.7 | < 4.7 |  |  |  |
| CCC(C)(C)NS(=O)(=O)c1ccc(-c2cc(C(=O)N[C@H]3C[C@H](C(=O)O)C3)c(C)n2CC2CCCCC2)c(Cl)c1C [17/197] | 0.794 µM | 7.9 | 7.7 |  |  |  |
| COCCNC(=O)c1cc(-c2cc(C(C)(C)C)c(O)c(C(C)(C)C)c2)n(CC2CCCCC2)c1C [1/46] |  |  |  | 0.316 µM | 6.5/6.5/6.5 | 6.5/6.5/6.5 |
| Cc1c(C(=O)NCC(F)(F)F)cc(-c2cc(C(C)(C)C)c(O)c(C(C)(C)C)c2)n1CC1CCCCC1 [1/48] | 0.631 µM | 6.4 | 6.4 |  |  |  |
| Cc1c(C(=O)NC2CCOCC2)cc(-c2ccc(CN3CCOCC3(C)C)c(C(F)(F)F)c2)n1CC1CCCCC1 [Example 34, 1-(Cyclohexylmethyl)-5-(4-((3,3-dimethylmorpholino)methyl)-3-(trifluoromethyl)phenyl)-2-methyl-N-(tetrahydro-2H-pyran-4-yl)-1H-pyrrole-3-carboxamide] | 0.398 µM | 6.8 | 7.1 |  |  |  |

| SMILES | IC50 [1, 2] | pIC50 (FF) (RORγ; [3]) | pIC50 (REN) (RORγ; [4]) | IC50 [1] | pIC50 (FF) (RORγ) | pIC50 (REN) (RORγ) |
| --- | --- | --- | --- | --- | --- | --- |
| Cc1c(C(=O)NC2CCOCC2)cc(-c2cc(Cl)c(S(=O)(=O)NC(C)(C)C)c(C(F)(F)F)c2)n1CC1CCCCC1 [17/113] | 0.501 µM | 6.8 | 6.8 |  |  |  |
| Cc1c(C(=O)NCC2(C(=O)O)CCOCC2)cc(-c2cc(C(C)(C)C)cc(C3(C)CC3)c2)n1CC1CCCCC1 [17/61] | 1 µM | 7.4 | 7.5 |  |  |  |
| Cc1c(C(N)=O)cc(-c2cc(C(C)(C)C)c3c(c2)C2(CCO3)CC2)n1CC1CCCCC1 [1/105] |  |  |  | 0.251 µM | 6.6/6.5/6.5 | 6.6/6.5/6.5 |
| Cc1c(C(=O)NCC2(C(=O)NCCCO)CCOCC2)cc(-c2cc(C(C)(C)C)c3c(c2)C2(CCO3)CC2)n1CC1CCCCC1 [17/34] | 1.58 µM | 7.0 | 6.9 |  |  |  |
| CCN(C(C)(C)C)S(=O)(=O)c1ccc(-c2cc(C(=O)NCC(C)(C)O)c(C)n2CC2CCCCC2)cc1C(C)(C)C [9/10] |  |  |  | 0.316 µM | 6.5/7.7/7.2 | 6.5/7.7/7.2 |
| Cc1c(C(=O)NCCS(N)(=O)=O)cc(-c2cc(C(C)(C)O)cc(C3(C)CC3)c2)n1CC1CCCCC1 [17/315] | 1.26 µM | 6.5 | 6.5 |  |  |  |
| Cc1c(C(=O)NC2CCOCC2)cc(-c2ccc(S(=O)(=O)NC(C)(C)C)c(C(F)(F)F)c2)n1CC1(C)CCCC1 [17/176] | 0.251 µM | 7.1 | 7.0 |  |  |  |
| Cc1c(C(=O)NCCC(C)(C)C(=O)O)cc(-c2cc(C(=O)NC(C)(C)C)cc(C3(C)CC3)c2)n1CC1CCCCC1 [17/340] | 1.58 µM | 7.1 | 7.1 |  |  |  |
| Cc1c(C(=O)NCC(=O)N(C)C)cc(-c2cc(C(C)(C)C)cc(C(C)(C)C)c2)n1CC1CCCCC1 [1/6] |  |  |  | 0.631 µM | 6.2/6.7/6.7 | 6.2/6.7/6.7 |
| Cc1c(C(=O)NCCN2CCOCC2)cc(-c2cc(C(C)(C)O)cc(C3(C)CC3)c2)n1CC1CCCCC1 [17/316] | 2.51 µM | 6.3 | 6.3 |  |  |  |
| Cc1c(C(=O)NCC2CC(C(=O)O)C2)cc(-c2cc(C(C)(C)O)cc(C3(C)CC3)c2)n1CC1CCCCC1 (stereo not drawn) [17/246] | 3.98 µM | 6.1 | 6.2 |  |  |  |
| Cc1c(C(=O)N2CCC(C)(C(=O)O)CC2)cc(-c2ccc(S(=O)(=O)NC(C)(C)C)c(C(F)(F)F)c2)n1CC1CCCCC1 [17/224] | 0.794 µM | 7.1 | 7.2 |  |  |  |
| Cc1c(C(=O)NC2COC2)cc(-c2cc(C(=O)NC(C)(C)C)nc(C(C)(C)C)c2)n1CC1CCCCC1 [Example 6, N,6-Di-tert-butyl-4-(1-(cyclohexylmethyl)-5-methyl-4-(oxetan-3-ylcarbamoyl)-1H-pyrrol-2-yl)picolinamide] |  |  |  | 0.631 µM | 6.2/6.3/6.4 | 6.2/6.3/6.4 |
| Cc1c(C(=O)N2CCCC(C)(C(=O)O)C2)cc(-c2ccc(S(=O)(=O)NC(C)(C)C)c(C(F)(F)F)c2)n1CC1CCCCC1 (stereo not drawn) [17/225] | 0.794 µM | 7.6 | 7.6 |  |  |  |
| Cc1c(C(=O)NC2CSC2)cc(-c2cc(C(C)(C)C)cc(C(C)(C)C)c2)n1CC1CCCCC1 [1/14] |  |  |  | 2 µM | 5.7/6.5/6.6 | 5.7/6.5/6.6 |
| COC(C)(c1cc(-c2cc(C(=O)NC3CCOCC3)c(C)n2CC2CCCCC2)cc(C(C)(C)C)c1)C(F)(F)F (stereo not drawn) [17/186] | 0.398 µM | 6.9 | 7.1 |  |  |  |
| Cc1c(C(=O)NCC(C)(C)O)cc(-c2cc(C3(C)CC3)nc(C(C)(C)C)n2)n1CC1CCCCC1 [17/355] |  |  |  | 0.316 µM | 6.5/6.6/6.6 | 6.5/6.6/6.6 |
| Cc1c(S(=O)(=O)NC(C)(C)C)ccc(-c2cc(C(=O)NCC3(O)CCS(=O)(=O)CC3)c(C)n2CC2CCCCC2)c1Cl [17/290] | 0.631 µM | 7.6 | 7.6 |  |  |  |
| COC(=O)CC1(NC(=O)c2cc(-c3cc(C(C)(C)C)cc(C(C)(C)C)c3)n(CC3CCCCC3)c2C)COC1 [17/46] | 0.316 µM | 6.5/6.5/6.5 | 6.5/6.5/6.5 |  |  |  |

— patent US9815851B2, “Pyrrolo carboxamides as modulators of orphan nuclear receptor RAR-related orphan receptor-gamma (RORγ, NR1F3) activity and for the treatment of chronic inflammatory and autoimmune diseases” (PHENEX PHARMACEUTICALS AG, priority 2011, dated 2017)
